{
  "source": "ChEMBL document CHEMBL5346924",
  "about": "“Optically activated MEK1/2 inhibitors (Opti-MEKi) as potential antimelanoma agents” (Eur J Med Chem, 2023)",
  "key": {"[1]": {"target": "RAC-alpha serine/threonine-protein kinase (Homo sapiens) (UniProt P31749)", "sequence (P31749 whole entry)": "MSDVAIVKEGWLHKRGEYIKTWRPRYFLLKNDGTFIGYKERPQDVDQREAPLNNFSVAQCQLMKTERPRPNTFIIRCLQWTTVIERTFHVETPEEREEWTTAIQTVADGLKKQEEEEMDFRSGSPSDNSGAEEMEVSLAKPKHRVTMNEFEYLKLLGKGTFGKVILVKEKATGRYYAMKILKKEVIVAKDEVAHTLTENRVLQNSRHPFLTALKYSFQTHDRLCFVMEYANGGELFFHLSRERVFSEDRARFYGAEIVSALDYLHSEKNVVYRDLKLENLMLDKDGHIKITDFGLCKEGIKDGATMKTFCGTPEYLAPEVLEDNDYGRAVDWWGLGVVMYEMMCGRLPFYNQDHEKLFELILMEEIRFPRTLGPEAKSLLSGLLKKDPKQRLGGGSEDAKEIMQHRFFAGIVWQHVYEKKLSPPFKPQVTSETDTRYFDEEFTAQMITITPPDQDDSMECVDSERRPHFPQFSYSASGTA", "experiment": "Inhibition of recombinant human AKT1 at 1 uM"}, "A-375": {"system": "A-375", "experiment": "Antiproliferative activity against CM-Dil labelled human A-375 cells xenografted in Zebra fish AB at 45 pM administered from 3 days post fertilization and measured at day 5 post fertilization in the absence of irradiation by fluorescence based analysis", "format": "functional, cell-based", "settings": "time 48.0 hrs"}, "HCT-116": {"system": "HCT-116", "experiment": "Antiproliferative activity against human HCT-116 cells harboring KRAS G13D mutant assessed as cell growth inhibition incubated for 72 hrs in the absence of UV irradiation by CellTiter-Glo luminescent assay", "format": "functional", "settings": "HCT-116, light or radiation study"}, "CYP2D6": {"target": "CYP2D6 (Homo sapiens, UniProt P10635)", "sequence (P10635 whole entry)": "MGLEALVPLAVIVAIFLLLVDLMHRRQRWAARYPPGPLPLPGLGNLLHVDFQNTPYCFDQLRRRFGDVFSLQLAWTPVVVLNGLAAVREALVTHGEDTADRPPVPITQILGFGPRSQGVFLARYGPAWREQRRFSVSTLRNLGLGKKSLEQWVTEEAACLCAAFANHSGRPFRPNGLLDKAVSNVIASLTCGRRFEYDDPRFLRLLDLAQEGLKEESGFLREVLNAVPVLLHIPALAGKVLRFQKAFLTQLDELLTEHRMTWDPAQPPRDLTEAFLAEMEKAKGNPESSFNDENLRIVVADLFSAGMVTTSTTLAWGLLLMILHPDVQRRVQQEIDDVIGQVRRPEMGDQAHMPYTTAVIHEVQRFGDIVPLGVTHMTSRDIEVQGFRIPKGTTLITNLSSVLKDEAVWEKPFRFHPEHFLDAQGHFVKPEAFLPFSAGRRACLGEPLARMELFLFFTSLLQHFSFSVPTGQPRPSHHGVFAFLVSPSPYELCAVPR", "experiment": "Inhibition of CYP2D6 in human microsomes at 10 uM in the presence of NADPH relative to control", "format": "ADME, Microsome"}, "[2]": {"experiment": "Metabolic stability in human liver microsomes assessed as intrinsic clearance in the presence of NADPH regenerating system", "format": "ADME, Microsome", "settings": "read-out: CLH"}, "[3]": {"target": "Mitogen-activated protein kinase; ERK1/ERK2 (Homo sapiens, UniProt P27361+P28482)", "sequence (P27361 whole entry, looked up)": "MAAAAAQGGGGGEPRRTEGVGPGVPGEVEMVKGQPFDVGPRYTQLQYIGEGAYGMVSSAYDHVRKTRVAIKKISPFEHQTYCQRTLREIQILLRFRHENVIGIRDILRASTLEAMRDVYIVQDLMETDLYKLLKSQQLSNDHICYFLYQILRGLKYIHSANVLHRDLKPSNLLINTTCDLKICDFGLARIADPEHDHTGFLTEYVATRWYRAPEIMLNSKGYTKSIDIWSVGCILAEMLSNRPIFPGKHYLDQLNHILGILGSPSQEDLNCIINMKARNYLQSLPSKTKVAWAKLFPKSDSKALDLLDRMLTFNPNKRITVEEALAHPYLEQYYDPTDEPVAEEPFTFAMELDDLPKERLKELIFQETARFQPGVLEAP", "sequence (P28482 whole entry, looked up)": "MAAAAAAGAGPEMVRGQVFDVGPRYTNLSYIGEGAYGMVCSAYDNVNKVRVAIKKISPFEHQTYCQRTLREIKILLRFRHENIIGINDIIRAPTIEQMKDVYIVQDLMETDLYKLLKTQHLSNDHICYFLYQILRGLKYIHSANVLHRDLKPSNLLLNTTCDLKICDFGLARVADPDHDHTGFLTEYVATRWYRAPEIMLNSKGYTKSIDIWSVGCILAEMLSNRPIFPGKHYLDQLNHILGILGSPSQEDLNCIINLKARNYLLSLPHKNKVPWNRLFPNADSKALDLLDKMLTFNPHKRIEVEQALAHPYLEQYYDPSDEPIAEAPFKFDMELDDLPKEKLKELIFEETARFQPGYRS", "experiment": "Inhibition of ERK1/2 phosphorylation in human A-375 cells upto 10 uM incubated for 1 hrs in the absence of UV irradiation by Western blot analysis", "format": "cell-based"}, "[4]": {"experiment": "Metabolic stability in human liver microsomes assessed as parent compound remaining measured after 1 hrs in the presence of NADPH regenerating system", "format": "ADME, Microsome", "settings": "read-out: Stability"}, "[5]": {"target": "Epidermal growth factor receptor (Homo sapiens) (UniProt P00533)", "sequence (P00533 whole entry)": "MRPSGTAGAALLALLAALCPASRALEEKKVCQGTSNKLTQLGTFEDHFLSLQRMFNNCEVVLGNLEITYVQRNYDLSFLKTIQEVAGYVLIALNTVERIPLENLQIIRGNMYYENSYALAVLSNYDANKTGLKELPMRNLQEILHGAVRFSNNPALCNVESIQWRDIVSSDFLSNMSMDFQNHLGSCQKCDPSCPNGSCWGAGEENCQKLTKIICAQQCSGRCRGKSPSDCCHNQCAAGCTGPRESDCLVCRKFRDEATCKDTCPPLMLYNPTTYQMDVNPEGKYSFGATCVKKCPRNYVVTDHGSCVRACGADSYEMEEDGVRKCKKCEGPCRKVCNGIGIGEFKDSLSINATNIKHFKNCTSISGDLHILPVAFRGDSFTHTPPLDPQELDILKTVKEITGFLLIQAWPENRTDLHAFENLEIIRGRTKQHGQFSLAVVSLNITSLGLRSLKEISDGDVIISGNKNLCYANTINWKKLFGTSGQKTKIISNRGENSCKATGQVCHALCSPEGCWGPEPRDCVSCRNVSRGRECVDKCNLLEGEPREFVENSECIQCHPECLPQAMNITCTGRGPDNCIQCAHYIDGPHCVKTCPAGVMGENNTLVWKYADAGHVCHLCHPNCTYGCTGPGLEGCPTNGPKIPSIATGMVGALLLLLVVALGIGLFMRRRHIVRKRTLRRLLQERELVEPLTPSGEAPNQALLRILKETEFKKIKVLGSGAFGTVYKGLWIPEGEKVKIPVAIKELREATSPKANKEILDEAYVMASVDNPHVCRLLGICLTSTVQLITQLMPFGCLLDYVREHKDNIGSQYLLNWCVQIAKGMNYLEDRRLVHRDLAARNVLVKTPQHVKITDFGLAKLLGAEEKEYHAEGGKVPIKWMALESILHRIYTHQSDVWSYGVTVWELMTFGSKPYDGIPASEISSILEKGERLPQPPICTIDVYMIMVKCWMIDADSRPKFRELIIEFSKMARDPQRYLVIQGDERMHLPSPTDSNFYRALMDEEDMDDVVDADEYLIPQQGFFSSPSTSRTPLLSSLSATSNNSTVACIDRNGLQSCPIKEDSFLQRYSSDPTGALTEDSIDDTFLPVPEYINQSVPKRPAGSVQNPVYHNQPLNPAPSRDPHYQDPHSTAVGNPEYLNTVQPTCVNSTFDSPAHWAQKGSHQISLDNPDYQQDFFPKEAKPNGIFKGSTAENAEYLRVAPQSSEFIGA", "experiment": "Inhibition of recombinant human EGFR at 1 uM"}, "[6]": {"experiment": "Stability in human blood plasma assessed as half-life", "format": "ADME, cell-free"}, "[7]": {"experiment": "Photoactivation of the compound assessed as fold change in caging efficiency"}, "CYP2C19": {"target": "CYP2C19 (Homo sapiens, UniProt P33261)", "sequence (P33261 whole entry)": "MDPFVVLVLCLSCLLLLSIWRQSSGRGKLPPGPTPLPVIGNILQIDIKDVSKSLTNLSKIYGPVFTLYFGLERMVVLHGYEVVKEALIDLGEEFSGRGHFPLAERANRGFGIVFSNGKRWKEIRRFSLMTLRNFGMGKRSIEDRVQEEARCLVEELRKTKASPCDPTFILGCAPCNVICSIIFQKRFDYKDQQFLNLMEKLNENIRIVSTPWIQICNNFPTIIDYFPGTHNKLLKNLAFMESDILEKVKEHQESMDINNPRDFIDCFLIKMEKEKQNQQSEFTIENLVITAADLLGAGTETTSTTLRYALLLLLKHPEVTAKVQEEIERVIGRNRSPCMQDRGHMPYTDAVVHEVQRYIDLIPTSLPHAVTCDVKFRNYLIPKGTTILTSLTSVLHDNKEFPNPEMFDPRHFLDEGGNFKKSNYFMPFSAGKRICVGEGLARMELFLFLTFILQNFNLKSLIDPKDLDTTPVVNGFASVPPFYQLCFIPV", "experiment": "Inhibition of CYP2C19 in human microsomes at 10 uM in the presence of NADPH relative to control", "format": "ADME, Microsome"}, "[8]": {"target": "Dual specificity mitogen-activated protein kinase kinase 2 (Homo sapiens) (UniProt P36507)", "sequence (P36507 whole entry)": "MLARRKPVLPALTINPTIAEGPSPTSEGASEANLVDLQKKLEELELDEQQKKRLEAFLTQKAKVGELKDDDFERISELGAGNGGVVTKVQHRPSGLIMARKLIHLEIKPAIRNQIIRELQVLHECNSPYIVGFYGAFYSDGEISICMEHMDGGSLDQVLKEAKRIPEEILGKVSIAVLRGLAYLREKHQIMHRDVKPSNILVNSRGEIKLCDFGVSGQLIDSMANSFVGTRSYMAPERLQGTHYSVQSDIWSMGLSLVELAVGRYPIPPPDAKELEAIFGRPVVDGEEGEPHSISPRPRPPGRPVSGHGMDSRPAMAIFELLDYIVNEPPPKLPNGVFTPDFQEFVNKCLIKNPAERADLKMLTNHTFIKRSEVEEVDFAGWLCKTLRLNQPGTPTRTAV", "experiment": "Inhibition of recombinant human MEK2 at 1 uM"}, "[9]": {"experiment": "Photoactivation of the compound assessed as photocleavage by measuring decay half-life in the presence of 365 nm UV irradiation by HPLC based LC-MS analysis"}, "A549": {"system": "A549", "experiment": "Antiproliferative activity against human A549 cells harboring KRAS […] mutant assessed as cell growth inhibition incubated for 72 hrs in the absence of UV irradiation by CellTiter-Glo luminescent assay", "format": "functional", "settings": "A549, light or radiation study"}},
  "note": "Calls of active or inactive are those of the source. The calls are words filed in the database; no cut-off is given here.",
  "data": [
    {"smiles": "COc1cc(C(C)O/C(=N\\OC[C@H](O)CO)c2ccc(F)c(F)c2Nc2ccc(I)cc2F)c([N+](=O)[O-])cc1OC", "note": "(some centres undefined)", "values": [
      {"measurement": "inhibition", "setting": "[1]", "value": "inactive"},
      {"measurement": "Activity", "setting": "A-375", "value": "inactive"},
      {"measurement": "GI50", "setting": "HCT-116", "value": "> 10", "unit": "µM"},
      {"measurement": "inhibition at 10 µM", "setting": "CYP2D6", "value": 21.5, "unit": "%"},
      {"measurement": "CLint scaled", "setting": "[2]", "value": 51.4, "unit": "mL/min/kg"},
      {"measurement": "inhibition", "setting": "[3]", "value": "inactive"},
      {"measurement": "remaining at 1 h", "setting": "[4]", "value": 13.6, "unit": "%"},
      {"measurement": "inhibition", "setting": "[5]", "value": "inactive"},
      {"measurement": "half-life", "setting": "[6]", "value": "> 289", "unit": "min"},
      {"measurement": "fold change (FC)", "setting": "[7]", "value": "> 5085"},
      {"measurement": "inhibition at 10 µM", "setting": "CYP2C19", "value": 44.6, "unit": "%"},
      {"measurement": "inhibition", "setting": "[8]", "value": "inactive"},
      {"measurement": "half-life", "setting": "[9]", "value": 1.41, "unit": "min"},
      {"measurement": "GI50", "setting": "A549", "value": "> 10", "unit": "µM"}
    ]}
  ]
}
